Test results taken from the NIST ThermoML archive (doi:10.1021/acs.jced.6b01058).

Assays:
[1] = wn = mass fraction of the nth substance listed; details: 85 kPa, Liquid, Vibrating tube method
[2] = 85 kPa, Liquid, Vibrating tube method
[3] = mn = molality of the nth substance listed, in mol/kg; details: 85 kPa, Liquid, Vibrating tube method

CCO [ethanol] + O
mass density [kg/m3], [1]
Details | 298.15 K | 303.15 K | 308.15 K | 313.15 K
w1 = 0.04 | 990.13 | 988.79 | 987.24 | 985.42
w1 = 0.08 | 983.9 | 982.43 | 980.77 | 978.85
w1 = 0.16 | 972.57 | 970.69 | 968.6 | 966.4

O [water]
[2]
Details | mass density [kg/m3]
298.15 K | 997.29
303.15 K | 995.9
308.15 K | 994.27
313.15 K | 992.46

CO [methanol] + O
mass density [kg/m3], [1]
Details | 298.15 K | 303.15 K | 308.15 K | 313.15 K
w1 = 0.04 | 989.97 | 988.62 | 987.03 | 985.22
w1 = 0.08 | 982.92 | 981.47 | 979.91 | 978.12
w1 = 0.16 | 969.42 | 967.61 | 965.92 | 963.68

CCCCCCCCCCCC(=O)N(C)CC(=O)[O-].[Na+] [sodium [dodecanoyl(methyl)amino]acetate] + O
mass density [kg/m3], [3]
Details | m1 = 0.02 | m1 = 0.03 | m1 = 0.04 | m1 = 0.05 | m1 = 0.06 | m1 = 0.07 | m1 = 0.08 | m1 = 0.09
298.15 K | 998.13 | 998.42 | 998.73 | 999.03 | 999.43 | 999.67 | 1000.07 | 1000.37
303.15 K | 996.67 | 996.99 | 997.32 | 997.61 | 997.96 | 998.27 | 998.59 | 998.88
308.15 K | 995.04 | 995.33 | 995.67 | 995.93 | 996.27 | 996.56 | 996.88 | 997.14
313.15 K | 993.18 | 993.48 | 993.8 | 994.06 | 994.41 | 994.7 | 994.95 | 995.27

CCCO [propan-1-ol] + O
mass density [kg/m3], [1]
Details | 298.15 K | 303.15 K | 308.15 K | 313.15 K
w1 = 0.04 | 990.59 | 989.14 | 987.49 | 985.62
w1 = 0.08 | 985.46 | 983.86 | 982.13 | 980.12
w1 = 0.16 | 973.64 | 971.45 | 969.08 | 966.84
